This is an account of results in patent US20240368168A1, “SARM1 ENZYME ACTIVITY INHIBITOR AND APPLICATION THEREOF” (ARTIVILA BIOPHARMA, priority 2021, published 2024).

This experiment concerns the target T1, dN-SARM1 protein (Homo sapiens, UniProt Q6SZW1).
T1 construct: the N-terminal mitochondrial localization signal peptide of SARM1 was removed
T1 sequence (Q6SZW1 28-724): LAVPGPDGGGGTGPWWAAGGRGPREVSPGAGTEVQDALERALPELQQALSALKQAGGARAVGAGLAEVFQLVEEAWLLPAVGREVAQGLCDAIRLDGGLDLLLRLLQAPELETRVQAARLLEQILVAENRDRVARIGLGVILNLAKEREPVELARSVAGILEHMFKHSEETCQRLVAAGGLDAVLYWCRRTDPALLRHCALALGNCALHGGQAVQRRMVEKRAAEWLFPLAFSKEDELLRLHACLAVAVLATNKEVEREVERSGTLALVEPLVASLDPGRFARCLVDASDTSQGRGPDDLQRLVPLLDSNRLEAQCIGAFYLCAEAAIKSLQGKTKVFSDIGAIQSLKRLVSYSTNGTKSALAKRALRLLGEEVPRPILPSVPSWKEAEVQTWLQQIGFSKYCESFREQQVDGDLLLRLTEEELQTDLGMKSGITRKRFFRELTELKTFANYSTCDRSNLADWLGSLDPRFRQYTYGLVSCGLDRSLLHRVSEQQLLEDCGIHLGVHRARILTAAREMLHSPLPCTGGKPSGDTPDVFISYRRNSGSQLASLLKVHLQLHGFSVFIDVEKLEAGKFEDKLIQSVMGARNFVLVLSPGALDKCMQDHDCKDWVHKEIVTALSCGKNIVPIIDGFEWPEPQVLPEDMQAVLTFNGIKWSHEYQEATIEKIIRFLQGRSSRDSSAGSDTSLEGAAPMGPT
In words: In vitro biochemical assay for inhibiting SARM1 enzymatic activity (IC50), PC6 fluorescence method. The note with it: 50 μM NAD, 50 μM PC6, 50 μM NMN activator. On the procedure:
200 μM compound was first added to a solution of 0.05 μg/ml dN-SARM1 in 50 mM Tris-HCl (pH 7.5). Half of the mixture was added to an equal volume of a solution of 0.05 μg/ml dN-SARM1 in 50 mM Tris-HCl (pH 7.5) and mixed. The drug was diluted 6 times in this manner, with the final concentrations being 200, 100, 50, 25, 12.5, 6.25, 3.125 μM, or 200, 50, 12.5, 3.125, 0.78, 0.195, 0.049 μM, respectively. The protein without inhibitors added, being used as control group, was incubated at room temperature for 10 minutes.
50 μM NAD, 50 μM PC6 as substrate and 50 μM NMN as activator were added to the dN-SARM1 protein incubated with the inhibitor and reacted for 30 minutes at room temperature. The concentration of each component was the final concentration in the reaction system.
During the reaction, PC6 fluorescence spectrum dynamics were detected by a microplate reader, wherein the excitation wavelength and emission wavelength for detection were 390 nm and 520 nm, respectively. Finally, the reaction rate was used to express the activity of the protein, and the half inhibitory concentration was calculated. The higher the reaction rate, the stronger the protein activity, and the lower the inhibitory efficiency of the compound.
The dose curve of compounds inhibiting SARM1 enzymatic activity was determined using the above method.

Where a name gives a salt, the structure may show the parent alone.

Broadly, the IC50 is the concentration needed to halve the response being measured. A higher IC50 goes with weaker potency. Molecule `c1cc(-c2cnc3ccc(-n4cccn4)cn23)c2cc[nH]c2c1` [Compound 202, 3-(1H-indol-4-yl)-6-(1H-pyrazol-1-yl)imidazo[1,2-a]pyridine] came in with an IC50 of 1000 to 10000 nM.

Take `Ic1cnc2ccc(-n3cccc3)cn12` [Compound 203]: the IC50 is less than 1000 nM. On to `Nc1cccc(-c2cnc3ccc(N4CCCC4=O)cn23)c1` [Compound 204], for which the IC50 fell in the range of 1000 to 10000 nM. As for `O=C(Nc1cccc(-c2cnc3ccc(-n4cccn4)cn23)c1)C1CCOCC1` [Compound 207], the IC50 was 1000 to 10000 nM. The result for `CN(C(=O)OC(C)(C)C)c1ccc2ncc(-c3cncc4[nH]cc(I)c34)n2c1` [Compound 208, tert-butyl (3-(3-iodo-1H-pyrrolo[2,3-c]pyridin-4-yl)imidazo[1,2-a]pyridin-6-yl)(methyl) carbamate] reads 1000 to 10000 nM; that for `CNc1ccc2ncc(-c3cncc4[nH]cc(I)c34)n2c1` [Compound 209], 1000 to 10000 nM; that for `CNc1ccc2ncc(-c3cccc4c(I)n[nH]c34)n2c1` [Compound 210, 3-(3-iodo-1H-indazol-7-yl)-N-methylimidazol[1,2-a]pyridin-6-amine hydrochloride], 1000 to 10000 nM. The molecule `CC(C)(C)OC(=O)N(CCCc1ccccc1)c1ccc2ncc(-c3cccc(NC(=O)C4CCOCC4)c3)n2c1` [Compound 217] showed a half-inhibitory concentration (IC50) of 1000 to 10000 nM. The result for `O=C(COCCOCc1ccccc1)Nc1cccc(-c2cnc3ccc(NCCCc4ccccc4)cn23)c1` [Compound 218] reads 1000 to 10000 nM; that for `O=C(Cc1ccc(Cl)cc1)Nc1ccn2c(-c3ccncc3)cnc2c1` [Compound 222], 1000 to 10000 nM; that for `CN(C)c1ccc2ncc(-c3cccc4c3CNC4=O)n2c1` [Compound 223], less than 1000 nM. As for `c1cc(-c2cnc3ccc(N4CCOCC4)cn23)cc(N2CCOCC2)c1` [Compound 226], the figure is 1000 to 10000 nM; as for `COCCOCCNc1cccc(-c2cnc3ccc(N4CCOCC4)cn23)c1` [Compound 229], 1000 to 10000 nM.

With `COCCNc1cccc(-c2cnc3ccc(N4CCOCC4)cn23)c1` [Compound 232], the IC50 lay in the range of 1000 to 10000 nM.

Take `COc1ccc2ncc(-c3cccc4c3CNC4=O)n2c1` [Compound 235]: the IC50 is 1000 to 10000 nM. The result for `CNc1ccc2ncc(-c3cccc(CNC(=O)C4CCOCC4)c3)n2c1` [Compound 242] reads less than 1000 nM; that for `CNc1ccc2ncc(-c3cccc(NC(=O)COCc4ccccc4)c3)n2c1` [Compound 250], 1000 to 10000 nM. The result for `CNc1ccc2ncc(-c3cccc4c3CNC4=O)n2c1` [Compound 257] reads less than 1000 nM; that for `CNc1ccc2ncc(-c3cncc4[nH]ccc34)n2c1` [Compound 258], less than 1000 nM; that for `CNc1ccc2ncc(-c3ccncc3F)n2c1` [Compound 261], less than 1000 nM. As to `CN(C(=O)OC(C)(C)C)c1ccc2ncc(-c3cccc4cnccc34)n2c1` [Compound 263], the IC50 was less than 1000 nM.

In turn, `CNc1ccc2ncc(-c3cccc4cnccc34)n2c1` [Compound 264] yielded a 50% inhibitory concentration (IC50) of less than 1000 nM. As to `CN(C(=O)OC(C)(C)C)c1ccc2ncc(-c3ccc4c(c3)CNC4=O)n2c1` [Compound 265], the IC50 was less than 1000 nM.

As to `CNc1ccc2ncc(-c3ccc4c(c3)CNC4=O)n2c1` [Compound 266], the IC50 was 1000 to 10000 nM. Regarding `CN(C(=O)OC(C)(C)C)c1ccc2ncc(-c3cccc4cnn(C)c34)n2c1` [Compound 267], the IC50 was less than 1000 nM. The molecule `CN(C(=O)OC(C)(C)C)c1ccc2ncc(-c3cncc4ccccc34)n2c1` [Compound 268] showed an IC50 of less than 1000 nM.

In turn, `CNc1ccc2ncc(-c3cncc4ccccc34)n2c1` [Compound 269] gave an IC50 of 1000 to 10000 nM. Take `CN(C(=O)OC(C)(C)C)c1ccc2ncc(-c3ccc4ccncc4c3)n2c1` [Compound 270]: the half-maximal inhibitory concentration (IC50) was less than 1000 nM. In the case of `CNc1ccc2ncc(-c3ccc4ccncc4c3)n2c1` [Compound 271], the IC50 was less than 1000 nM. As for `CN(C(=O)OC(C)(C)C)c1ccc2ncc(-c3cncnc3)n2c1` [Compound 283], the figure is 1000 to 10000 nM. As for `CNc1ccc2ncc(-c3ccc4cn[nH]c4c3)n2c1` [Compound 284], the figure is 1000 to 10000 nM; as for `CN(C(=O)OC(C)(C)C)c1ccc2ncc(-c3cccc4c3ccn4C)n2c1` [Compound 285], 1000 to 10000 nM; as for `CN1Cc2c(cccc2-c2cnc3ccc(N(C)C(=O)OC(C)(C)C)cn23)C1=O` [Compound 286], 1000 to 10000 nM.

`CNc1ccc2ncc(-c3cccc4c3CN(CCOC)C4=O)n2c1` [Compound 290] had a half-inhibitory concentration (IC50) of 1000 to 10000 nM. The result for `CN(C)CCN1Cc2c(cccc2-c2cnc3ccc(N(C)C(=O)OC(C)(C)C)cn23)C1=O` [Compound 291] reads 1000 to 10000 nM. The result for `CNc1ccc2ncc(-c3cccc4c3CN(CCN(C)C)C4=O)n2c1` [Compound 292] reads 1000 to 10000 nM; that for `CN(C(=O)OC(C)(C)C)c1ccc2ncc(-c3ccnc4c3ccn4C)n2c1` [Compound 293], less than 1000 nM; that for `CNc1ccc2ncc(-c3ccnc4c3ccn4C)n2c1` [Compound 294], 1000 to 10000 nM. As for `CN(C(=O)OC(C)(C)C)c1ccc2ncc(-c3cc4ccn(C)c4cn3)n2c1` [Compound 295], the figure is 1000 to 10000 nM. `CNc1ccc2ncc(-c3cccc4c3CC(=O)N4C)n2c1` [Compound 296] showed an IC50 of 1000 to 10000 nM. The molecule `CN(C(=O)OC(C)(C)C)c1ccc2ncc(-c3ccc4cc[nH]c4n3)n2c1` [Compound 297] displayed an IC50 of 1000 to 10000 nM. The molecule `CNc1ccc2ncc(-c3cccc4c3CC(=O)N4)n2c1` [Compound 298] came in with an IC50 of 1000 to 10000 nM. As for `CN(C(=O)C(C)(C)C)c1ccc2ncc(-c3cccc(N)c3)n2c1` [Compound 302], the figure is 1000 to 10000 nM. In turn, `CC(C)(C)C(=O)Nc1ccc2ncc(I)n2c1` [Compound 304] returned a half-inhibitory concentration (IC50) of 1000 to 10000 nM. As for `CN(C(=O)C1CC1)c1ccc2ncc(I)n2c1` [Compound 305], the figure is less than 1000 nM; as for `CN(C(=O)C1CC1)c1ccc2ncc(-c3cccc(N)c3)n2c1` [Compound 306], less than 1000 nM; as for `COC(=O)c1cccc(-c2cnc3ccc(N(C)C(C)=O)cn23)c1` [Compound 308], 1000 to 10000 nM.

Consider `CC(=O)N(C)c1ccc2ncc(-c3cccc(C(=O)NC4CCOCC4)c3)n2c1` [Compound 309], for which the IC50 is 1000 to 10000 nM. As for `COCCOCCNC(=O)c1cccc(-c2cnc3ccc(N(C)C(C)=O)cn23)c1` [Compound 310], the figure is 1000 to 10000 nM; as for `CN(C(=O)OC(C)(C)C)c1ccc2ncc(C3CCCc4ncccc43)n2c1` (stereo not drawn) [Compound 311], less than 1000 nM; as for `CNc1ccc2ncc(C3CCCc4ncccc43)n2c1` (stereo not drawn) [Compound 312], 1000 to 10000 nM.
